Laboratory results as given in patent US20240336601A1 (Chulalongkorn University, priority 2020, published 2024).

Assays:
[1] = target: interaction between PD-1 and PD-L1 (Homo sapiens, UniProt Q9NZQ7); assay: PD-1/PD-L1 protein-protein interaction assay (ALPHA); assay type: binding; conditions: 2 nM His-tagged human PD-L1, 0.6 nM PD-1-Fc, AlphaScreen
[2] = target: T1, PD-1/PD-L1 interaction (Homo sapiens, UniProt Q9NZQ7); assay: PD-1/PD-L1 blockage cell-based bioassay (Jurkat NFAT luciferase / CHO-PDL1 co-culture); conditions: Jurkat NFAT cells co-cultured with CHO-PDL1 cells, 6 h, luminescence
T1 construct: expressed in transfected cells
T1 sequence (Q9NZQ7 19-290): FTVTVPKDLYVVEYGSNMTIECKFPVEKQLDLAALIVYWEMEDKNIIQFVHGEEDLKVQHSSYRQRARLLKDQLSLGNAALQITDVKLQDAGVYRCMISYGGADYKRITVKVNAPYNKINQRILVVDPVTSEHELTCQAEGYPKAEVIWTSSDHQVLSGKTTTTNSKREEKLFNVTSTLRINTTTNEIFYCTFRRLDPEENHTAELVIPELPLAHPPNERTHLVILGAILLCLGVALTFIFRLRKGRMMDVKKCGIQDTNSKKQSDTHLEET

Sequence of interaction between PD-1 and PD-L1 (Q9NZQ7 19-238 limits assumed): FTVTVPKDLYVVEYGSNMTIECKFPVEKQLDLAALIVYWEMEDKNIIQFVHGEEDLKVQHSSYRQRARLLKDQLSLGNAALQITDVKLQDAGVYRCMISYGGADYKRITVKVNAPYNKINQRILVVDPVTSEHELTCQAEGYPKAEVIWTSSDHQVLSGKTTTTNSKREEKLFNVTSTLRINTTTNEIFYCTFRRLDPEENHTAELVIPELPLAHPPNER

| SMILES | IC50 [1] [nM] | IC50 [2] [nM] |
| --- | --- | --- |
| COc1cc(-n2ncc3c(-c4cccc(-c5ccc(CN[C@H]6C[C@@H](O)C6)c(OC)n5)c4Cl)cccc32)cc(OC)c1CN1CC(C)(O)C1 [Example 102, 1-(4-(4-(2-chloro-3-(5-(((cis-3-hydroxycyclobutyl)amino)methyl)-6-methoxypyridin-2-yl)phenyl)-1H-indazol-1-yl)-2,6-dimethoxybenzyl)-3-methylazetidin-3-ol] | 1 to 10 | < 200 |
| COc1cc(-n2ncc3c(-c4cccc(-c5ccc(CN6CC7(CNC(=O)C7)C6)c(OC)n5)c4Cl)cccc32)cc(OC)c1CN1CC(C)(C(N)=O)C1 [Example 103, 1-(4-(4-(2-chloro-3-(6-methoxy-5-((7-oxo-2,6-diazaspiro[3.4]octan-2-yl)methyl)pyridin-2-yl)phenyl)-1H-indazol-1-yl)-2,6-dimethoxybenzyl)-3-methylazetidine-3-carboxamide] | 1 to 10 | < 200 |
| COc1cc(-n2ncc3c(-c4cccc(-c5ccc(CN6CC(C)(C(N)=O)C6)c(OC)n5)c4Cl)cccc32)cc(OC)c1CN1CC(C)(O)C1 [Example 104, 1-((6-(2-chloro-3-(1-(4-((3-hydroxy-3-methylazetidin-1-yl)methyl)-3,5-dimethoxyphenyl)-1H-indazol-4-yl)phenyl)-2-methoxypyridin-3-yl)methyl)-3-methylazetidine-3-carboxamide] | 1 to 10 | 201 to 2000 |
| COc1cc(-n2ncc3c(-c4cccc(-c5ccc(CN[C@H]6C[C@@H](O)C6)c(OC)n5)c4Cl)cccc32)cc(OC)c1CNCC(C)(C)C(N)=O [Example 109, 3-((4-(4-(2-chloro-3-(5-(((cis-3-hydroxycyclobutyl)amino)methyl)-6-methoxypyridin-2-yl)phenyl)-1H-indazol-1-yl)-2,6-dimethoxybenzyl)amino)-2,2-dimethylpropanamide] | 1 to 10 | < 200 |
| COc1cc(-n2ncc3c(-c4cccc(-c5ccc(CN6CC7(CNC(=O)C7)C6)c(OC)n5)c4Cl)cccc32)ncc1CN[C@H]1C[C@@H](O)C1 [Example 111, 2-((6-(2-chloro-3-(1-(5-(((cis-3-hydroxycyclobutyl)amino)methyl)-4-methoxypyridin-2-yl)-1H-indazol-4-yl)phenyl)-2-methoxypyridin-3-yl)methyl)-2,6-diazaspiro[3.4]octan-7-one] | < 1 | 201 to 2000 |
| COc1cc(-n2ncc3c(-c4cccc(-c5ccc(CN6CC7(CNC(=O)C7)C6)c(OC)n5)c4Cl)cccc32)cc(OC)c1CNC[C@@H](C)O [Example 112, (R)-2-((6-(2-chloro-3-(1-(4-(((2-hydroxypropyl)amino)methyl)-3,5-dimethoxyphenyl)-1H-indazol-4-yl)phenyl)-2-methoxypyridin-3-yl)methyl)-2,6-diazaspiro[3.4]octan-7-one] | < 1 | < 200 |
| COc1cc(-n2ncc3c(-c4cccc(-c5ccc(CN[C@H]6C[C@@H](O)C6)c(OC)n5)c4Cl)cccc32)cc(OC)c1CNC[C@@H](C)O [Example 113, cis-3-(((6-(2-chloro-3-(1-(4-((((R)-2-hydroxypropyl)amino)methyl)-3,5-dimethoxyphenyl)-1H-indazol-4-yl)phenyl)-2-methoxypyridin-3-yl)methyl)amino)cyclobutan-1-ol] | < 1 | < 200 |
| COc1cc(-n2ncc3c(-c4cccc(-c5ccc(C6=NCCN6)c(OC)n5)c4Cl)cccc32)cc(OC)c1CN1CC(C)(C(N)=O)C1 [Example 114, 1-(4-(4-(2-chloro-3-(5-(4,5-dihydro-1H-imidazol-2-yl)-6-methoxypyridin-2-yl)phenyl)-1H-indazol-1-yl)-2,6-dimethoxybenzyl)-3-methylazetidine-3-carboxamide] | 1 to 10 | 201 to 2000 |
| COc1cc(-n2ncc3c(-c4cccc(-c5ccc(CN6CC7(CCC(=O)N7)C6)c(OC)n5)c4Cl)cccc32)ncc1CNCCO [Example 116, 2-((6-(2-chloro-3-(1-(5-(((2-hydroxyethyl)amino)methyl)-4-methoxypyridin-2-yl)-1H-indazol-4-yl)phenyl)-2-methoxypyridin-3-yl)methyl)-2,5-diazaspiro[3.4]octan-6-one] | < 1 | < 200 |
| COc1cc(-n2ncc3c(-c4cccc(-c5ccc(CNC[C@@H]6CCC(=O)N6)c(OC)n5)c4Cl)cccc32)cc(OC)c1CN1CC[C@@H](C(=O)O)C1 [Example 117, (R)-1-(4-(4-(2-chloro-3-(6-methoxy-5-(((((S)-5-oxopyrrolidin-2-yl)methyl)amino)methyl)pyridin-2-yl)phenyl)-1H-indazol-1-yl)-2,6-dimethoxybenzyl)pyrrolidine-3-carboxylic acid] | < 1 | < 200 |

Now from value to compound:

| IC50 [1] [nM] | IC50 [2] [nM] | SMILES |
| --- | --- | --- |
| < 1 | < 200 | COc1cc(-n2ncc3c(-c4cccc(-c5ccc(CN[C@H]6C[C@@H](O)C6)c(OC)n5)c4Cl)cccc32)cc(OC)c1CN[C@H]1C[C@@H](O)C1 [Example 101, cis-3-(((6-(2-chloro-3-(1-(4-(((cis-3-hydroxycyclobutyl)amino)methyl)-3,5-dimethoxyphenyl)-1H-indazol-4-yl)phenyl)-2-methoxypyridin-3-yl)methyl)amino)cylobutanol] |
| < 1 | < 200 | COc1cc(-n2ncc3c(-c4cccc(-c5ccc(CN[C@H]6C[C@@H](O)C6)c(OC)n5)c4Cl)cccc32)cc(OC)c1CN1CC(C)(C(N)=O)C1 [Example 105, 1-(4-(4-(2-chloro-3-(5-(((cis-3-hydroxycyclobutyl)amino)methyl)-6-methoxypyridin-2-yl)phenyl)-1H-indazol-1-yl)-2,6-dimethoxybenzyl)-3-methylazetidine-3-carboxamide] |
| < 1 | 201 to 2000 | COc1cc(-n2ncc3c(-c4cccc(-c5ccc(CN[C@H]6C[C@@H](O)C6)c(OC)n5)c4Cl)cccc32)ncc1CN[C@H]1C[C@@H](O)C1 [Example 106, cis-3-(((6-(2-chloro-3-(1-(5-(((cis-3-hydroxycyclobutyl)amino)methyl)-4-methoxypyridin-2-yl)-1H-indazol-4-yl)phenyl)-2-methoxypyridin-3-yl)methyl)amino)cyclobutanol] |
| < 1 | < 200 | COc1cc(-n2ncc3c(-c4cccc(-c5ccc(CN6CC7(CNC(=O)C7)C6)c(OC)n5)c4Cl)cccc32)cc(OC)c1CNCC(C)(C)C(N)=O [Example 107, 3-((4-(4-(2-chloro-3-(6-methoxy-5-((7-oxo-2,6-diazaspiro[3.4]octan-2-yl)methyl)pyridin-2-yl)phenyl)-1H-indazol-1-yl)-2,6-dimethoxybenzyl)amino)-2,2-dimethylpropanamide] |
| < 1 | < 200 | COc1cc(-n2ncc3c(-c4cccc(-c5ccc(CN6CC7(CNC(=O)C7)C6)c(OC)n5)c4Cl)cccc32)ncc1CNC[C@@H]1CCC(=O)N1 [Example 108, (S)-2-((6-(2-chloro-3-(1-(4-methoxy-5-((((5-oxopyrrolidin-2-yl)methyl)amino)methyl)pyridin-2-yl)-1H-indazol-4-yl)phenyl)-2-methoxypyridin-3-yl)methyl)-2,6-diazaspiro[3.4]octan-7-one] |
| < 1 | 201 to 2000 | COc1cc(-n2ncc3c(-c4cccc(-c5ccc(CN6CC7(CNC(=O)C7)C6)c(OC)n5)c4Cl)cccc32)ncc1CNC[C@@H](C)O [Example 110, (R)-2-((6-(2-chloro-3-(1-(5-(((2-hydroxypropyl)amino)methyl)-4-methoxypyridin-2-yl)-1H-indazol-4-yl)phenyl)-2-methoxypyridin-3-yl)methyl)-2,6-diazaspiro[3.4]octan-7-one] |
